Data set [1] deals with human leukocytes (basophils). Put plainly: Inhibition of histamine release from human leukocytes (basophils), Procedure A. The class given is cell-based. The conditions noted are these: Leukocyte, 1 h, rabbit anti-human IgE, 37° C., 60 minutes, (d) No response detected at highest dose indicated, read-out: In Vitro Inhibition of Histamine Release IC50, Procedure A. The procedure: A. Procedure for Determining Inhibition of Histamine Release from Human Leukocytes (Basophils) 1. Separation of Leukocytes: A modification of the method of L. Lichtenstein and A. Osler, J. Exp. Med. 120, 507 (1964) is used. Heparinized human blood (80-100 ml) is mixed with 20 ml of saline (0.2%) containing 0.6 gm of dextrose and 1.2 gm dextran in propylene centrifuge tubes. The mixture is kept at ambient temperature for 60-90 minutes to allow the separation of erythrocytes from the platelet-leukocyte-rich supernate. The supernate is removed and centrifuged for 8 minutes at 110×g in cold. The leukocyte pellet is washed twice with Tris buffer and finally suspended in 150-180 ml Tris-ACM buffer at 1-2×10^6 cells/ml. 2. Reaction Mixture: The reaction is carried out in 12×75 mm plastic tubes at a total volume of […]. The reaction medium includes 0.05 ml rabbit anti-human IgE (the antigen), 0.2 ml of the test compound in water at concentrations ranging from 10-100 μM, and 0.1 ml of the leukocyte suspension. The reaction mixture is incubated in a 37° C. shaking water bath for 60 minutes. Upon completion of the reaction, the tubes are centrifuged and the supernatants collected. The protein is removed from the supernatants by precipitation with 0.2 ml of 8% perchloric acid. 3. Histamine Assay: Histamine release is measured by the automated fluorometric method of W. Siraganian and W. Hook in Chapter 102 of the Manual of Clinical Immunology, 2nd Edition, edited by R. Rose and H. Friedman, published by the American Society for Microbiology, Washington, D.C. 1980. Percent inhibition is calculated as follows: [formula] The concentration which causes a 50 percent inhibition (IC50) of histamine release is interpolated from a plot of percent inhibition versus logarithm of drug concentration.

The next data set relates to guinea pig basophils. Kind of data set: Inhibition of histamine release from guinea pig basophils, Procedure C. Format: cell-based. The following applies: Cavia porcellus, 1 h, ovalbumin-sensitized, 37° C., 60 minutes, read-out: In Vitro Inhibition of Histamine Release IC50, Procedure C. The procedure: C. Procedure for Determining Inhibition of Histamine Release from Guinea Pig Basophils 1. In Vivo Sensitization: Male Hartley guinea pigs (200-300 gms) are immunized on day 0 with two 0.05 ml intradermal injections of 200 μg ovalbumin. Sensitized basophils are available between days 13-25 post-sensitization. This mode of sensitization favors IgE response. 2. Separation of Leukocytes: The method of Lett-Brown et al., Int. Arch. Allergy, Appl. Immun. 64, 241 (1981) is used. Animals are anesthetized with ether and are bled via cardiac puncture with plastic syringes containing sufficient EDTA to provide a final concentration of 10 mM. One part of 3% gelatin in saline at 37° C. is mixed with two parts of blood in a 16×150 mm tube. The cells are allowed to sediment at a 30° angle for 45 minutes in a 37° C. water bath. The leukocyte-rich plasma is collected and centrifuged at 150×g for 30 minutes at room temperature. The pelleted cells are washed in Hepes-buffered saline (HG) containing 4 mM EDTA and resuspended in Hepes-buffered saline containing Mg^++ and Ca^++ (HGCM) at 4-5×10^6 cells/ml. 3. Reaction Mixture: The reaction is carried out in 12×75 mm plastic tubes and a total volume of 1.2 ml which includes 0.5 ml of antigen, 0.2 ml of drug solution at concentrations ranging from 10-1000 μM and 0.5 ml of prewashed cell suspension. The reaction mixture is incubated in a 37° C. shaking water bath for 60 minutes. Upon completion of the reaction, the tubes are centrifuged and the supernatants collected. The protein is removed from the supernatants by precipitation with 0.2 ml of 8% perchloric acid. 4. Histamine Assay: Histamine release is measured by the automated fluorometric method of Siraganian, supra. The concentration which causes a 50 percent inhibition of Histamine release is computed as in Part A.

Data set [2] concerns rat peritoneal mast cells. Put plainly: Inhibition of histamine release from rat peritoneal mast cells, Procedure B. The class given is cell-based. The following applies: Mast cell, 1 h, sheep anti-rat IgE or ovalbumin, 37° C., 60 minutes, (d) No response detected at highest dose indicated, read-out: In Vitro Inhibition of Histamine Release IC50, Procedure B. The procedure:
B. Procedure for Determining Inhibition of Histamine Release from Rat Peritoneal Mast Cells 1. Harvest of Peritoneal Mast Cells: After the rats are sacrificed with ether, 20 ml of Minimum Essential Medium (MEM) containing 20 units/ml heparin is injected into the peritoneum. The abdomen is massaged for one minute and the lavage fluid collected. The peritoneal cells are centrifuged at 1800 rpm for 8 minutes in cold. After two washes with Tris A buffer, the cells are resuspended in Tris ACM buffer at 2-4×10^6 cells/ml. 2. Reaction Mixture: The reaction is carried out in 12×75 mm plastic tubes at a total volume of 1.25 ml. The reaction mixture includes 0.5 ml (10-1000 μg) sheep anti-rat IgE or ovalbumin, 0.2 ml of the test compound in water at concentrations ranging from 10-1000 μM, […] phosphatidylserine solution (20-60 μg to each tube), and 0.5 ml of cell suspension. The reaction mixture is incubated in a 37° C. shaking water bath for 60 minutes. Upon completion of the reaction, the tubes are centrifuged and the supernatants collected. The protein is removed from the supernatants by precipitation with 0.2 ml of 8% perchloric acid. 3. Histamine Assay: Histamine release is measured by the automated fluorometric method of Siraganian, supra. The concentration which causes a 50% inhibition (IC50) of histamine release is computed as in Part A.

A further data set is described as follows: Solubility limit. The conditions noted are these: pH 7.

Structures can show the parent of a compound that is named as a salt.

In the case of `O=C(CC(=O)N1CCN(Cc2ccc(Cl)cc2)CC1)N1CCN(Cc2ccc(Cl)cc2)CC1` [Example 15, 1,3-Bis[4-(4-chlorobenzyl)-1-piperazinyl]-1,3-dioxopropane dihydrochloride monohydrate], the IC50 turned out to be 17 µM in data set [1], 49 µM in the data set on guinea pig basophils and 10 µM in data set [2].

Regarding `Clc1ccc(CCN2CCN(CCCN3CCN(CCc4ccc(Cl)cc4)CC3)CC2)cc1` [Example 16, 1,3-Bis[4-(4-chlorophenethyl)-1-piperazinyl]propane], the figures for the IC50 (in data set [1]; in the data set with guinea pig basophils; in data set [2]) were 3 µM, 12 µM and over 100 µM, respectively.

As for `Cl.Cl.Cl.Cl.Clc1ccc(CCCN2CCN(CCCN3CCN(CCCc4ccc(Cl)cc4)CC3)CC2)cc1.O` [Example 24, 1,3 -Bis[4-(3-{4-chlorophenyl}propyl)-1-piperazinyl]propane tetrahydrochloride monohydrate], the IC50 in data set [1] turned out to be 2 µM; in the data set on guinea pig basophils, 8.9 µM; in data set [2], 2 µM. The same compound displayed a solubility in the data set “Solubility limit” of 1000 µg/mL.

Regarding `Clc1ccc(CN2CCCN(CCCN3CCCN(Cc4ccc(Cl)cc4)CC3)CC2)cc1` [Example 28, 1,3-Bis[4-(4-chlorobenzyl)-1-homopiperazinyl]propane tetrahydrochloride], the IC50 in data set [1] is 6 µM; in the data set with guinea pig basophils, 2.3 µM; in data set [2] it was 9 µM.

The values are drawn from patent publication US4725597A, “Bis(piperazinyl or homopiperazinyl)alkanes” (Boehringer Ingelheim Ltd., priority 1984, dated 1988).
